Experimental data from patent publication US12540118B2, “Dendrene amide compound, bactericide and use thereof” (Jiangsu Flag Chemical Industry Co., Ltd., priority 2020, dated 2026).

Experiments:
Sphaerotheca fuliginea = Sphaerotheca fuliginea potting method; format: in vivo; settings: 100 mg/L; for pest or weed control at 100 µg/mL: Podosphaera fuliginea, read-out: Sphaerotheca fuliginea control rating
Protocol: The fungicidal activity of the control agents and target compounds are determined. The test and investigation method refers to SOP-SC-1101 sphaerotheca fuliginea potting method in disinfectant rolls written by KANGZHUO and GUBAOGEN in “Standard operation specification for testing biological activity of pesticides”.

succinate dehydrogenase = target: T1, succinate dehydrogenase (Sus scrofa, UniProt A5GZW8+D0VWV4+Q007T0); assay: Enzyme activity assay, succinate dehydrogenase (DCIP reduction); format: biochemical, porcine; settings: read-out: Inhibitors (10 μM, SQR)
T1 construct: isolated from porcine hearts; from tissue; host or cells: porcine heart
T1 sequence (Q0QF01 43-664 partner): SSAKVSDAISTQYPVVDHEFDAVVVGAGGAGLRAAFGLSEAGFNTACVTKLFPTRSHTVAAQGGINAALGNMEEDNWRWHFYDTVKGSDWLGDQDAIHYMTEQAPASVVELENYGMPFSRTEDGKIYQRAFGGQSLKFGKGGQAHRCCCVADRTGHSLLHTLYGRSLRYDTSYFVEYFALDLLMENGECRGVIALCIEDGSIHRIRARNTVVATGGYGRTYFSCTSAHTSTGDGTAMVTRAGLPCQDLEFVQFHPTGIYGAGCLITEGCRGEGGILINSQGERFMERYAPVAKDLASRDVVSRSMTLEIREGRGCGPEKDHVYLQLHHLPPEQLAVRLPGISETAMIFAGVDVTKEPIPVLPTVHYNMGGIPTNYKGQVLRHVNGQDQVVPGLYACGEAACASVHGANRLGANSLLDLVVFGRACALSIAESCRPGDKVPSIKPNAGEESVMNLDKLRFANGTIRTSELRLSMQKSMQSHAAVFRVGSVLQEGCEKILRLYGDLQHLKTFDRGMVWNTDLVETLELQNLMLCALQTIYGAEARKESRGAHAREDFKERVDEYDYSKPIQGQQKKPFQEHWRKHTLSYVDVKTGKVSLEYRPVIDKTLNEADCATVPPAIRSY
T1 sequence (Q007T0 29-280): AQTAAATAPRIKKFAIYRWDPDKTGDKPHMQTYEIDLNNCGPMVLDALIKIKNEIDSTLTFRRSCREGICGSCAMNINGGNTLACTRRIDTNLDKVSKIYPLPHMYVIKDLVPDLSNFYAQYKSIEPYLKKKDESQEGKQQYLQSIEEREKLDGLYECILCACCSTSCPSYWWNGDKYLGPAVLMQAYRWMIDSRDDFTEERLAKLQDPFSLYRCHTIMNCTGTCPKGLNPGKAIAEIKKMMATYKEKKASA
T1 sequence (D0VWV4 30-169): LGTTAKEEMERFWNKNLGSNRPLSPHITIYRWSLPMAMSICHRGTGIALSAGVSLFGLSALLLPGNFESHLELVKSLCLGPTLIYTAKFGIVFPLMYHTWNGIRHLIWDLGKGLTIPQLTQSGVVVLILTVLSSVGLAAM
T1 sequence (A5GZW8 57-159 limits assumed): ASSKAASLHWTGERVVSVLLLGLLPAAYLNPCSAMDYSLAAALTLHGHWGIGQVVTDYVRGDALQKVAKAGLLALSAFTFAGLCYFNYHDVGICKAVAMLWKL
Protocol: The inhibitory activities of control agents and target compounds on succinate dehydrogenase are determined.
The enzyme used in this test example is succinate dehydrogenase, which is isolated from porcine hearts.
The test method comprises the following steps: The total volume of the system is 1.8 ml, and the system contained 100 mM Na2HPO4—NaH2PO4 buffer (pH=7.4), 0.3 mM EDTA, 20 mM sodium succinate, 53 μM DCIP (2,6-dichloroindophenol sodium), and 2 nM succinate dehydrogenase. Thermostatic waterbath at 23° C. and magnetic stirring at 600 rpm. The decrease in the light absorption of the substrate DCIP is monitored at a wavelength of 600 nm and experimental points in a linear range are collected. Control substrate consumption not more than 5% of the experimental points. The molar extinction coefficient of DCIP is 21 mM^−1 cm^−1. And calculating the reduction yield of the DCIP in the reaction time, fitting a linear slope, and deducting the baseline slope to obtain the initial reaction speed.

Erysiphe graminis = Erysiphe graminis potting method; format: in vivo
Protocol: The fungicidal activity of the control agents and target compounds are determined. The test and investigation method refers to SOP-SC-1116 Erysiphe graminis potting method in disinfectant rolls written by KANGZHUO and GUBAOGEN in “Standard operation specification for testing biological activity of pesticides”.

[1] = Blumeria graminis, 100 mg/L, read-out: Erysiphe graminis control rating

Compound | pest or weed control at 100 µg/mL (Sphaerotheca fuliginea) [%] | inhibition at 10 µM (succinate dehydrogenase) [%] | pest or weed control at 100 µg/mL (Erysiphe graminis; [1]) [%] | other results
C=C(c1ccc(C(F)(F)F)cc1Cl)C(C)N(C(=O)c1c(C(F)F)nn(C)c1F)C1CC1 (centres unmarked) [Compound 102] | 80 to 100 | > 90 | 80 to 100 | –
Cc1ccc(C(C)C)c(C(=C(Cl)Cl)C(C)N(C(=O)c2c(C(F)F)nn(C)c2F)C2CC2)c1 (centres unmarked) [Compound 198] | 80 to 100 | > 90 | 80 to 100 | –
C=C(c1ccc(F)cc1Cl)C(C)N(C(=O)c1c(C(F)F)nn(C)c1F)C1CC1 (centres unmarked) [Compound 98] | 80 to 100 | > 90 | 80 to 100 | –
C=C(c1ccc(C(C)C)cc1C)C(C)N(C(=O)c1c(C(F)F)nn(C)c1F)C1CC1 (centres unmarked) [Compound 96] | 80 to 100 | > 90 | 80 to 100 | –
Cc1ccc(C(C)C)c(C(CN(C(=O)c2c(C(F)F)nn(C)c2F)C2CC2)=C(Cl)Cl)c1 [Compound 145] | 80 to 100 | > 90 | 80 to 100 | –
Cn1nc(C(F)F)c(C(=O)N(CC(=C(Cl)Cl)c2ccccc2S(C)(=O)=O)C2CC2)c1F [Compound 161] | 80 to 100 | > 90 | 80 to 100 | –
Cc1ccc(C(CN(C(=O)c2c(C(F)F)nn(C)c2F)C2CC2)=C(Cl)Cl)cc1C [Compound 151] | 80 to 100 | > 90 | 80 to 100 | –
CC(C(=C(Cl)Cl)c1cccc(F)c1)N(C(=O)c1c(C(F)F)nn(C)c1F)C1CC1 (centres unmarked) [Compound 177] | 80 to 100 | > 90 | 80 to 100 | –
C=C(CN(C(=O)c1c(C(F)F)nn(C)c1F)C1CC1)c1cc(C(F)(F)F)ccc1Cl [Compound 45] | 80 to 100 | > 90 | 80 to 100 | –
C=C(CN(C(=O)c1c(C(F)F)nn(C)c1F)C1CC1)c1ccc(C)cc1 [Compound 4] | < 70 | > 90 | 80 to 100 | –
Cn1nc(C(F)F)c(C(=O)N(CC(=C(Cl)Cl)c2cc(C(F)(F)F)ccc2Cl)C2CC2)c1F [Compound 156] | 80 to 100 | > 90 | 80 to 100 | –
C=C(CN(C(=O)c1c(C(F)F)nn(C)c1F)C1CC1)c1cc(C)ccc1C(C)(C)C [Compound 39] | 70 to 80 | > 90 | 80 to 100 | –
CNC(=O)/C(=N/OC)c1ccccc1CO/N=C(C)/C=C/c1c(Cl)cccc1Cl [Fenaminstrobin, reference compound] | – | – | – | Sphaerotheca fuliginea control rating (Sphaerotheca fuliginea): B (70% ≤ B < 80%); Erysiphe graminis control rating (Erysiphe graminis; 6.25 mg/L): B (70% ≤ B < 80%); Erysiphe graminis control rating (Erysiphe graminis; 25 mg/L): A (80% ≤ A ≤ 100%); Erysiphe graminis control rating (Erysiphe graminis; 100 mg/L): A (80% ≤ A ≤ 100%)
Cn1nc(C(F)F)c(C(=O)N(CC(=C(Cl)Cl)c2cccc(C(F)(F)F)c2Cl)C2CC2)c1F [Compound 157] | 80 to 100 | > 90 | 80 to 100 | –
C=C(CN(C(=O)c1c(C(F)F)nn(C)c1F)C1CC1)c1ccc(C(F)(F)F)cc1Cl [Compound 47] | 80 to 100 | > 90 | 80 to 100 | –
C=C(c1cccc(C(F)(F)F)c1Cl)C(C)N(C(=O)c1c(C(F)F)nn(C)c1F)C1CC1 (centres unmarked) [Compound 101] | 80 to 100 | > 90 | 80 to 100 | –
CC(C(=C(Cl)Cl)c1cc(Cl)ccc1F)N(C(=O)c1c(C(F)F)nn(C)c1F)C1CC1 (centres unmarked) [Compound 208] | 80 to 100 | > 90 | 80 to 100 | –
OC(Cc1ccccc1Cl)(Cn1nc[nH]c1=S)C1(Cl)CC1 (centres unmarked) [Prothioconazole, reference compound] | 70 to 80 | – | 80 to 100 | pest or weed control at 6.25 µg/mL (Erysiphe graminis; Blumeria graminis, 6.25 mg/L, read-out: Erysiphe graminis control rating): 70 to 80%; pest or weed control at 25 µg/mL (Erysiphe graminis; Blumeria graminis, 25 mg/L, read-out: Erysiphe graminis control rating): 80 to 100%
